Measurements from patent publication US8809532B2, “Aza-ring fused indole and indoline derivatives” (AbbVie Inc., priority 2009, dated 2014).

What was measured:
[1] = tested on: SK-N-SH human neuroblastoma cells; test: Serum Deprivation/JC-1 Mitochondrial Membrane Potential (MMP) Assay; assay type: cell-based; conditions: for Emax: 18 h, percent maximal JC-1 ratio normalized to the peak value for 10 μM dimebolin, read-out: JC-1 max %; for EC50: JC-1 ratio after ~18 hours serum deprivation, single curve fit to mean data of n=2-3
Experimental: SK—N—SH human neuroblastoma cells obtained from American Type Culture Collection (Rockville, Md.) were maintained in the log phase of growth in Minimal Essential Media (MEM), 10% heat inactivated fetal calf serum and 100 units/mL antibiotic-antimycotic (AA). Cells were cultured and maintained in a humidified incubator at 37° C. under 5% CO2 and 95% air. Cells were trypsinized (0.25%) and subcultured every 3 days and used from 15-18 passages. All cell culture supplies were obtained from Invitrogen (Carlsbad, Calif.).
SK—N—SH cells were plated 2-3 days in advance at a concentration of 50,000 cells/well onto collagen coated black-walled 96 well plates (Becton-Dickinson, Bedford, Mass.) in a total volume of 200 μL. On day of experimental treatment, the media containing serum was aspirated from each well and rinsed once with MEM/1% AA without serum. The cells then were incubated overnight in 100 μL of MEM/1% AA (no serum) with and without dimebolin or novel chemical entities overnight for ˜18 hours. The following day, JC-1 dye (5,5′,6,6′-tetrachloro-1,1′,3,3′-tetraethylbenzimidazolcarbocyanide) was diluted 1:10 into MEM media according to the JC-1 Mitochondrial Membrane Potential Assay Kit: (Cayman Chemical Company, Ann Arbor, Mich.) and then 10 μL of the JC-1 dye solution was added to each well. The plates were centrifuged for 5 minutes at 400×g at room temperature followed by 40 minute incubation at 37° C. The plates were washed twice with 200 μL of provided Assay Buffer followed an addition of 100 μL of Assay Buffer to each well. The plates were read with an excitation and emission of 560 nm and 595 nM for red fluorescence and with an excitation and emission of […] and 535 nM for green fluorescence to determine the final JC-1 value taking the red to green fluorescence ratio. This assay is based on change in mitochondrial membrane potential (MMP) using this lipophilic cationic dye, JC-1, by monitoring the changes in the ratio of red to green fluorescence as the MMP depolarizes. This change in MMP reflects the health of the cell with healthy, viable cells have a high JC-1 ratio and high MMP whereas apoptotic, unhealthy cells have a low JC-1 ratio or low MMP.
For the ability of compounds to reverse the stress due to serum deprivation and increase the JC-1 ratio, the percent maximal intensity in JC-1 ratio was normalized to that induced by the peak value for 10 μM dimebolin and plotted against the compound concentration to calculate EC50 values and to control for plate-to-plate variability. Concentration-response data were analyzed using GraphPad Prism (San Diego, Calif.); the EC50 values were derived from a single curve fit to the mean data of n=2-3, in duplicates.
All compounds were dissolved in dimethyl sulfoxide at 10 mM stock solutions and tested at a concentration that the dimethyl sulfoxide levels never exceeded 1%.

[2] = tested on: primary postnatal (P0) cortical cells; test: Neurite Outgrowth Assay (Aβ1-42 neuroprotection, high content microscopy); assay type: cell-based, rat; conditions: n = 3; for % Attenuation Effect of 5 μM Aβ 1-42: 5 μM Aβ1-42; for Emax: Rattus norvegicus, maximum response relative to 300 nM dimebolin, at the noted concentration, read-out: Maximum Effect (of % 300 nM Dimebolin) at Concentration; for Concentration (nM) at which the Maximum Effect was seen: test compound concentration of the maximum response
Experimental: In addition to PC12 cells, other cellular model systems may also be used. Rat cortical cells can be cultured and prepared for high content microscopy analysis as previously described (Hu, M.; Schurdak, M. E.; et al. High content screen microscopy analysis of Aβ1-42-induced neurite outgrowth reduction in rat primary cortical neurons: Neuroprotective effects of α7 neuronal nicotinic acetylcholine receptor ligands. Brain Res. 2007, 1151, 227-235.). Briefly, cortical cell cultures are plated at density of 5×10^5 cells/mL onto poly-D-lysine coated 96-well plates and maintained in a cell incubator at 37° C. with 5% CO2. Experiments are performed using 6-7 day-old cortical cell cultures by treating with test compounds. In some experiments, the effect of test compounds on reversing Aβ toxicity can also be measured (Hu, M.; Schurdak, M. E.; et al. High content screen microscopy analysis of Aβ1-42-induced neurite outgrowth reduction in rat primary cortical neurons: Neuroprotective effects of α7 neuronal nicotinic acetylcholine receptor ligands. Brain Res. 2007, 1151, 227-235.). For assessment of neuroprotective effects, cells are first pretreated with test compounds for about 5 hours. Medium is then replaced with the medium containing freshly prepared about 5 μM Aβ1-42 peptide in the absence or presence of the test compounds for 3 days. The untreated group contains the same percentage of vehicle (DMSO) as in the treatment groups. Cells are fixed with approximately 4% paraformaldehyde containing 0.5% Hoechst 33342 for about 15 minutes, followed by three washes using PBS (pH 7.4) and blocked with 10% donkey serum in PBS for 1 hour at room temperature. The cells are then incubated overnight at about 4° C. with mouse anti-tubulin monoclonal antibody (1:100) for staining neurons and rabbit anti-GFAP (1:1000) for staining glia. In the next day, cells are incubated with FITC-labeled anti-mouse and TRITC-labeled anti-rabbit antibodies (1:1000) for about 1 hour at room temperature. After fixing and staining the cells, nuclei (360/400 nm excitation and 465/300 nm emission filters), neuron (475/350 nm excitation and 535/400 nm emission filters) and glial cell (535 nm excitation and 610 nm emission filters) images are collected using the ImageExpress Micro automatic fluorescent microscopy system (Molecular Devices, Sunnyvale, Calif.) employing a Nikon 10x Plan Fluor objective and Cool Snap HQ CCD camera. The Neurite Outgrowth module in the MetaMorph Imaging software can be used to automatically count total cell number, number of neuron cells, and the extent of neurite outgrowth.
The neurite outgrowth observed for untreated cells is set to 100% response. Treatment of cells with compounds prior to and concomitantly with Aβ1-42 gave a neuroprotective effect with neurite outgrowth maintained or enhanced relative to untreated cells.

[3] = tested on: patients with mild-to-moderate Alzheimer's disease; conditions: cited from earlier work
[4] = tested on: primary rat cortical neurons; conditions: comparable to that evoked by BDNF; cited from earlier work

| EC50 [1] [µM] | Compound | Emax [1] [%] | also measured |
| --- | --- | --- | --- |
| 2.98 | CC(=O)N1CCc2[nH]c3c(/C=C/c4ccc(C)nc4)cccc3c2C1 [Example 8, 2-acetyl-6-[(E)-2-(6-methylpyridin-3-yl)vinyl]-2,3,4,5-tetrahydro-1H-pyrido[4,3-b]indole] | 155 |  |
| 10.8 | Cc1ccc(C#Cc2cccc3c4c([nH]c23)CCN(C)C4)cn1 [Example 2, 2-methyl-6-[(6-methylpyridin-3-yl)ethynyl]-2,3,4,5-tetrahydro-1H-pyrido[4,3-b]indole] | 176 | % Attenuation Effect of 5 μM Aβ 1-42 [2]: 57 (n = 3) %; Emax [2]: 129%; Concentration (nM) at which the Maximum Effect was seen [2]: 300 nM |
| 4.32 | CN1CCc2[nH]c3c(C#Cc4ccncc4)cccc3c2C1 [Example 5, 2-methyl-6-(pyridin-4-ylethynyl)-2,3,4,5-tetrahydro-1H-pyrido[4,3-b]indole] | 103 |  |
|  | Cc1ccc2c(c1)c1c(n2CCc2ccc(C)nc2)CCN(C)C1 [dimebolin, 2,3,4,5-tetrahydro-2,8-dimethyl-5-[2-(6-methyl-3-pyridinyl)ethyl]-1H-pyrido[4,3-b]indole] |  | clinical course of disease, ADAS-Cog over baseline ([3]; 20 mg three times a day (60 mg/day)): significant improvement; most frequent adverse event ([3]; reported clinical studies): dry mouth; neurite outgrowth [4]: increase neurite outgrowth |
| 7.64 | Cc1ccc(CCc2cccc3c4c([nH]c23)CCN(C)C4)cn1 [Example 3, 2-methyl-6-[2-(6-methylpyridin-3-yl)ethyl]-2,3,4,5-tetrahydro-1H-pyrido[4,3-b]indole] | 115 |  |
| 3.24 | CCOC(=O)N1CCc2[nH]c3c(/C=C/c4ccc(C)nc4)cccc3c2C1 [Example 10, ethyl 6-[(E)-2-(6-methylpyridin-3-yl)vinyl]-1,3,4,5-tetrahydro-2H-pyrido[4,3-b]indole-2-carboxylate] | 146 |  |
| 8.93 | CN1CCc2[nH]c3c(C#Cc4cccnc4)cccc3c2C1 [Example 4, 2-methyl-6-(pyridin-3-ylethynyl)-2,3,4,5-tetrahydro-1H-pyrido[4,3-b]indole] | 199 |  |
| 4.37 | Cc1ccc(/C=C/c2cccc3c4c([nH]c23)CCN(C)C4)cn1 [Example 1, 2-methyl-6-[(E)-2-(6-methylpyridin-3-yl)vinyl]-2,3,4,5-tetrahydro-1H-pyrido[4,3-b]indole] | 126 | % Attenuation Effect of 5 μM Aβ 1-42 [2]: 39 (n = 3) %; Emax [2]: 111%; Concentration (nM) at which the Maximum Effect was seen [2]: 30 nM |
| 4.13 | Cc1ccc(/C=C/c2cccc3c4c([nH]c23)CCNC4)cn1 [Example 6, 6-[(E)-2-(6-methylpyridin-3-yl)vinyl]-2,3,4,5-tetrahydro-1H-pyrido[4,3-b]indole] | 132 |  |
| 4.72 | Cc1ccc(CCc2cccc3c4c([nH]c23)CCNC4)cn1 [Example 7, 6-[2-(6-methylpyridin-3-yl)ethyl]-2,3,4,5-tetrahydro-1H-pyrido[4,3-b]indole] | 88 |  |
| 5.1 | CCNC(=O)N1CCc2[nH]c3c(/C=C/c4ccc(C)nc4)cccc3c2C1 [Example 11, N-ethyl-6-[(E)-2-(6-methylpyridin-3-yl)vinyl]-1,3,4,5-tetrahydro-2H-pyrido[4,3-b]indole-2-carboxamide] | 186 |  |

| Compound | EC50 [1] [µM] | Emax [1] [%] | also measured |
| --- | --- | --- | --- |
| Cc1ccc(/C=C/c2cccc3c2N[C@@H]2CCN(C)C[C@H]32)cn1 (relative stereo) [Example 9, (cis)-2-methyl-6-[(E)-2-(6-methylpyridin-3-yl)vinyl]-2,3,4,4a,5,9b-hexahydro-1H-pyrido[4,3-b]indole] | 7.53 | 161 |  |
